Measurements taken from ChEMBL document CHEMBL3885881, “DrugMatrix”.

Species: Rattus norvegicus
Assay: DrugMatrix - Regimen: Daily Repeat
Format: toxicity, organism-based, Sprague-Dawley
Parameters: regimen Daily Repeat, gender Male, age 6-8 weeks
Conditions: in vivo, po, 100 mg/kg, route oral GAVAGE, dose level High, vehicle 100 % WATER; for ABSOLUTE BASOPHIL / ABSOLUTE EOSINOPHIL / ABSOLUTE LYMPHOCYTE / ABSOLUTE MONOCYTE / ABSOLUTE SEGMENTED NEUTROPHIL / BASOPHIL / EOSINOPHIL / ERYTHROCYTE COUNT / HEMATOCRIT / HEMOGLOBIN / LEUKOCYTE COUNT / LYMPHOCYTE / MEAN CORPUSCULAR HEMOGLOBIN / MEAN CORPUSCULAR HEMOGLOBIN CONCENTRATION / MEAN CORPUSCULAR VOLUME / MONOCYTE / NEUTROPHIL / NUCLEATED RED BLOOD CELLS / PLATELET COUNT: tissue Blood; for ALANINE AMINOTRANSFERASE / ALBUMIN / ALKALINE PHOSPHATASE / ASPARTATE AMINOTRANSFERASE / BLOOD UREA NITROGEN / CARBON DIOXIDE / CHLORIDE / CHOLESTEROL / CREATINE PHOSPHOKINASE / CREATININE / GLUCOSE / LACTATE DEHYDROGENASE / LIPASE / PHOSPHORUS / POTASSIUM / SODIUM / TOTAL BILIRUBIN / TOTAL PROTEIN / URIC ACID: tissue Plasma

CN(C)CCOC(c1ccccc1)c1ccccc1 [DIPHENHYDRAMINE]
ABSOLUTE BASOPHIL (72 h, time 3 day): 0 CELLS/uL
ABSOLUTE EOSINOPHIL (72 h, time 3 day): 48.67 CELLS/uL
ABSOLUTE LYMPHOCYTE (72 h, time 3 day): 13023.67 CELLS/uL
ABSOLUTE MONOCYTE (72 h, time 3 day): 77 CELLS/uL
ABSOLUTE SEGMENTED NEUTROPHIL (72 h, time 3 day): 750.67 CELLS/uL
BASOPHIL (72 h, time 3 day): 0%
EOSINOPHIL (72 h, time 3 day): 0.33%
ERYTHROCYTE COUNT (72 h, time 3 day): 5.83 x10E6/uL
HEMATOCRIT (72 h, time 3 day): 36.17%
HEMOGLOBIN (72 h, time 3 day): 14.33 G/DL
LEUKOCYTE COUNT (72 h, time 3 day): 13.9 x10E3/uL
LYMPHOCYTE (72 h, time 3 day): 93.67%
MEAN CORPUSCULAR HEMOGLOBIN (72 h, time 3 day): 24.6 pg
MEAN CORPUSCULAR HEMOGLOBIN CONCENTRATION (72 h, time 3 day): 39.67 G/DL
MEAN CORPUSCULAR VOLUME (72 h, time 3 day): 62.07 fL
MONOCYTE (72 h, time 3 day): 0.67%
NEUTROPHIL (72 h, time 3 day): 5.33%
NUCLEATED RED BLOOD CELLS (72 h, time 3 day): 0 /100WBC
PLATELET COUNT (72 h, time 3 day): 1203 x10E3/uL
ALANINE AMINOTRANSFERASE (72 h, time 3 day): 46.67 u/L
ALBUMIN (72 h, time 3 day): 4 G/DL
ALKALINE PHOSPHATASE (72 h, time 3 day): 345.33 u/L
ASPARTATE AMINOTRANSFERASE (72 h, time 3 day): 88.67 u/L
BLOOD UREA NITROGEN (72 h, time 3 day): 16.67 mg/dL
CARBON DIOXIDE (72 h, time 3 day): 30.33 mmol/L
CHLORIDE (72 h, time 3 day): 100.33 MEQ/L
CHOLESTEROL (72 h, time 3 day): 78 mg/dL
CREATINE PHOSPHOKINASE (72 h, time 3 day): 422.33 u/L
CREATININE (72 h, time 3 day): 0.14 mg/dL
GLUCOSE (72 h, time 3 day): 146 mg/dL
LACTATE DEHYDROGENASE (72 h, time 3 day): 334.67 u/L
LIPASE (72 h, time 3 day): 11.67 u/L
PHOSPHORUS (72 h, time 3 day): 12.1 mg/dL
POTASSIUM (72 h, time 3 day): 6.05 MEQ/L
SODIUM (72 h, time 3 day): 141 MEQ/L
TOTAL BILIRUBIN (72 h, time 3 day): 0.17 mg/dL
TOTAL PROTEIN (72 h, time 3 day): 5.67 G/DL
URIC ACID (72 h, time 3 day): 1.3 mg/dL
ABSOLUTE BASOPHIL (120 h, time 5 day): 0 CELLS/uL
ABSOLUTE EOSINOPHIL (120 h, time 5 day): 0 CELLS/uL
ABSOLUTE LYMPHOCYTE (120 h, time 5 day): 12726.67 CELLS/uL
ABSOLUTE MONOCYTE (120 h, time 5 day): 228 CELLS/uL
ABSOLUTE SEGMENTED NEUTROPHIL (120 h, time 5 day): 1012 CELLS/uL
BASOPHIL (120 h, time 5 day): 0%
EOSINOPHIL (120 h, time 5 day): 0%
ERYTHROCYTE COUNT (120 h, time 5 day): 5.75 x10E6/uL
HEMATOCRIT (120 h, time 5 day): 34.8%
HEMOGLOBIN (120 h, time 5 day): 13.73 G/DL
LEUKOCYTE COUNT (120 h, time 5 day): 13.97 x10E3/uL
LYMPHOCYTE (120 h, time 5 day): 91.33%
MEAN CORPUSCULAR HEMOGLOBIN (120 h, time 5 day): 23.9 pg
MEAN CORPUSCULAR HEMOGLOBIN CONCENTRATION (120 h, time 5 day): 39.47 G/DL
MEAN CORPUSCULAR VOLUME (120 h, time 5 day): 60.53 fL
MONOCYTE (120 h, time 5 day): 1.67%
NEUTROPHIL (120 h, time 5 day): 7%
NUCLEATED RED BLOOD CELLS (120 h, time 5 day): 0 /100WBC
PLATELET COUNT (120 h, time 5 day): 1281 x10E3/uL
ALANINE AMINOTRANSFERASE (120 h, time 5 day): 54.33 u/L
ALBUMIN (120 h, time 5 day): 3.93 G/DL
ALKALINE PHOSPHATASE (120 h, time 5 day): 386 u/L
ASPARTATE AMINOTRANSFERASE (120 h, time 5 day): 79.33 u/L
BLOOD UREA NITROGEN (120 h, time 5 day): 16.67 mg/dL
CARBON DIOXIDE (120 h, time 5 day): 25.67 mmol/L
CHLORIDE (120 h, time 5 day): 99 MEQ/L
CHOLESTEROL (120 h, time 5 day): 60 mg/dL
CREATINE PHOSPHOKINASE (120 h, time 5 day): 323.33 u/L
CREATININE (120 h, time 5 day): 0.11 mg/dL
GLUCOSE (120 h, time 5 day): 154.67 mg/dL
LACTATE DEHYDROGENASE (120 h, time 5 day): 155.33 u/L
LIPASE (120 h, time 5 day): 11.33 u/L
PHOSPHORUS (120 h, time 5 day): 11.47 mg/dL
POTASSIUM (120 h, time 5 day): 6.2 MEQ/L
SODIUM (120 h, time 5 day): 141.53 MEQ/L
TOTAL BILIRUBIN (120 h, time 5 day): 0.2 mg/dL
TOTAL PROTEIN (120 h, time 5 day): 5.5 G/DL
URIC ACID (120 h, time 5 day): 1.97 mg/dL
